Reference: article PMC3923730 (Journal of Translational Medicine, 2014)
Several values for one entry are separate records, joined by “and”; a condition that tells them apart may be missing. Identical values can stand only once.

Assays:
[1] = Pharmacokinetic based allometry to human; settings: allometric scaling, body weights 50-115 kg, 95% CI
Procedure: Pharmacokinetic based allometry (natural logarithm (ln) transformation) was performed using available pharmacokinetic data (not shown) from various animal species and was used to estimate clearance (CL) and the initial volume of distribution (V1 = Dose/C0; C0 defined as the extrapolated plasma concentration at time zero) in human. Animals had received a single i.v. bolus dose of TRO40303 administered under lipid-based formulations (Intralipid® and liposomes) in rats and pigs or under cremophor EL®/ethanol/saline formulation in dogs and monkeys. The pharmacokinetic parameters were assessed from the mean (for rodents) or individual TRO40303 plasma concentration versus time profiles using a non-compartmental approach “Log Linear Method” (Kinetica™, version 4.4.1). The ln of the CL and the ln of V1 were each plotted against the ln of the animals’ body weight. Finally, using this relationship, the human CL and V1 were estimated based on the human body weight ranging from 50 to 115 kg.

isolated rat heart [2] = experiment: Langendorff isolated rat heart ischemia-reperfusion, hemodynamic measurements; settings: 1 μM, vs 0.03% HPBCD
Procedure: Ischemic reperfusion of Langendorff isolated rat heart was performed as previously described. Rat hearts were perfused either with TRO40303 1 μM (0.5 mg/mL stock in 30% HPBCD diluted 1000X in Krebs-Henseleit (KH) buffer (n = 29)) or vehicle (30% HPBCD diluted 1000X in KH buffer (n = 24)) during 30 min equilibration, 10 min low flow ischemia, and 60 min reperfusion following 30 min of total ischemia. During the reperfusion period, the following parameters were monitored via a water-filled latex balloon inserted into the left ventricle: left ventricular end diastolic pressure (LVEDP); left ventricular developed pressure (Pdev); its first derivative (dP/dt) and heart rate. Coronary flow was measured by collecting the coronary perfusate over 1 min. The rate-pressure product (RPP) was calculated as the product of Pdev and heart rate. Some of the hearts from this main experiment were used to assess ascorbate, reactive oxygen species (ROS) and lipid peroxidation as described below.

isolated rat heart [3] = experiment: Free radical (ESR) and lipid peroxidation (MDA-TBA) measurements in isolated rat heart; settings: 1 μM
Procedure: To evaluate the effect of 1 μM TRO40303 on ischemia-reperfusion-induced ascorbate release and tissue depletion, effluents from control and treated hearts undergoing the perfusion protocol described above (n = 6/group) were collected for 15 s, 1 min following onset of reflow, and hearts were frozen in liquid nitrogen at the end of the reperfusion period. Ascorbate content in effluents and tissue homogenates was then assessed by quantifying the ascorbyl free radical (AFR)-dimethyl sulfoxide (DMSO) electron spin resonance (ESR) doublet as previously described, DMSO being used to stabilize the ascorbate free radical.
To investigate whether TRO40303 could interfere with ischemia-reperfusion-triggered ROS production, hearts (n = 6) undergoing the perfusion protocol described above received the spin trap nitrone DMPO (25 mM) during the first 5 min of reperfusion. A 15-s collection of the effluents was performed pre-ischemically on three additional hearts from both groups, and 3 min after onset of reflow for the 6 ischemic/reperfused hearts. Samples were immediately stored in liquid nitrogen. The free radical content of DMPO-supplemented from TRO40303-treated and control effluents was determined by ESR in glass capillaries. The ESR signal was acquired 1.5 min after thawing of the sample using the same parameters as for ascorbate except: modulation amplitude 0.0313 mT, receiver gain 5 × 10^4 and sweep rate for each scan 0.167 mT/s.
Lipid peroxidation in heart tissue at the end of reperfusion was evaluated using the malondialdehyde-thiobarbituric acid assay (MDA-TBA) (n = 8/group) as previously described.

[4] = system: myocardial infarction model in rats; experiment: Myocardial infarction model in rats (35 min CAO, reperfusion, infarct size by TTC); format: in vivo; settings: rat; for IS (% AAR) / IS (% LV) / IS (% Vehicle IS): 24 h reperfusion, mean ± S.E.M.; for reduction of infarct size compared to control: p < 0.001
Procedure: In all groups of rats, the left anterior descending coronary artery was occluded during 35 min and released for reperfusion as previously described. For the dose range testing, the vehicle (IL30) or TRO40303 solution in IL30 (stock solution diluted in IL30 to administer ~1.5 mL/kg in each group) at increasing doses (0.3, 1, 3 and 10 mg/kg) were administered as a 5 min infusion through the jugular vein starting 10 min before coronary artery reperfusion (CAR). To evaluate the therapeutic window, the vehicle or TRO40303 at 1 mg/kg were also administered either 10 min before coronary artery occlusion (CAO) or 10 min after CAR. Infarct size was determined by triphenyltetrazolium chloride (TTC) staining and was calculated as a percentage of the area at risk (AAR), 24 h after reperfusion. For the dose range experiment, infarct size was expressed for all doses as a percent of the vehicle group infarct size.

[5] = 0.3 mg/kg in IL30 i.v. 10 min before CAR
[6] = 1 mg/kg in IL30 i.v. 10 min before CAR
[7] = 3 mg/kg in IL30 i.v. 10 min before CAR
[8] = 10 mg/kg in IL30 i.v. 10 min before CAR

CC(C)CCC[C@@H](C)[C@H]1CC[C@H]2[C@@H]3CC/C(=N\O)[C@](C)(CCCO)[C@H]3CC[C@]12C [TRO40303, 3,5-seco-4-nor-cholestan-5-one oxime-3-ol]
predicted human CL [1]: 0.883 to 3.97 mL/min/kg
predicted human V1 [1]: 0.089 to 0.741 L/kg
recovery of LVEDP at reperfusion (isolated rat heart [2]; 60 min reperfusion after 30 min total ischemia): greatly and significantly improved
contractility (dP/dt) (isolated rat heart [2]; reperfusion): improved
developed pressure (Pdev) (isolated rat heart [2]; reperfusion): improved
rate-pressure product (RPP) (isolated rat heart [2]; reperfusion): significantly higher
recovery of coronary flow (isolated rat heart [2]; reperfusion): better recovery
decrease of DMPO-OH ESR signal intensity in coronary effluents (isolated rat heart [3]; 25 mM DMPO at reperfusion, 3 min after onset of reflow, p < 0.05, n = 6): 69%
AFR-DMSO release in the coronary effluents versus untreated hearts (isolated rat heart [3]; early reperfusion (1st min), p < 0.001, n = 6): –57%
tissue AFR-DMSO versus untreated hearts (isolated rat heart [3]; end of reflow, p < 0.05, n = 6): +24%
MDA-TBA formation compared to vehicle-perfused hearts (isolated rat heart [3]; heart tissue at end of reperfusion, p < 0.01, n = 8): –65%
IS (% AAR) [4, 5]: 26 ± 4 % AAR
IS (% LV) [4, 5]: 11 ± 2 % LV
IS (% Vehicle IS) [4, 5]: 77 ± 15 % Vehicle IS
infarct size compared to vehicle ([4]; 0.3 mg/kg in IL30 i.v. bolus 10 min before reperfusion, 24 h after reperfusion): smaller but not significantly different
infarct size compared to vehicle ([4]; 1 mg/kg in IL30 10 min after the onset of CAR): unchanged
reduction of infarct size compared to vehicle ([4]; 1 mg/kg in IL30 10 min before 35 min CAO): 55%
IS (% AAR) [4, 6]: 19 ± 2 % AAR
IS (% LV) [4, 6]: 7 ± 1 % LV
IS (% Vehicle IS) [4, 6]: 56 ± 6 % Vehicle IS
reduction of infarct size compared to vehicle ([4]; 1 mg/kg in IL30 i.v. bolus 10 min before reperfusion, p < 0.01): 40%
IS (% AAR) [4, 7]: 15 ± 2 % AAR
IS (% LV) [4, 7]: 6 ± 1 % LV
IS (% Vehicle IS) [4, 7]: 44 ± 7 % Vehicle IS
reduction of infarct size compared to control ([4]; 3 mg/kg in IL30 i.v. bolus 10 min before reperfusion, 3 mg/kg): 50% and ~ 50%
IS (% AAR) [4, 8]: 25 ± 6 % AAR
IS (% LV) [4, 8]: 7 ± 2 % LV
IS (% Vehicle IS) [4, 8]: 45 ± 10 % Vehicle IS
reduction of infarct size compared to control ([4]; 10 mg/kg in IL30 i.v. bolus 10 min before reperfusion, 10 mg/kg): 50% and ~ 50%
